How the values were obtained:
[1] = system: high fat diet induced rat lipid metabolism disorder model; assay: High fat diet induced rat lipid metabolism disorder model; type: in vivo, SD rat; details: 0.1 g/kg by gavage once a day, high fat feedstuff, after the eighth week
Experimental: Experiment method: 90 SD rats are normally fed for 1 week, the normal group of 10 rats are fed common feedstuff, and others are fed high fat feedstuff (basic feedstuff 88%, lard 10% and cholesterol 2%). 4 weeks later, the rats fed high fat feedstuff are randomly divided into 5 groups, each group of 10. […] The rats in the bezafibrate group are fed bezafibrate 100 mg/kg at the same time as the high fat feedstuff feeding respectively. The tested sample groups are given 100 mg/kg by gavage respectively at the same time as the high fat feedstuff feeding, once a day. The experiment animals can freely drink water and take food, and are fed separately in cages in light and dark for 12 hours, respectively, in a SPF grade animal lab under 25±2° C. After the eighth week of the experiment, the rats are fasted for 16 hours, collected blood from arteria cruralis, sacrificed by dislocating the cervical vertebra, taking out the liver, and preparing serum and liver tissue homogenate in conventional method. The triglyceride (TG), total cholesterol (TC), high density lipoprotein (HDL-C), low density lipoprotein (LDL-C), glutamic-pyruvic transaminase (ALT) and glutamic-oxalacetic transaminase (AST) content in the serum and liver is detected.

[2] = system: HepG2 cell; assay: Lipid droplet content of free fat acid (FFA) induced HepG2 cell (nile red, flow detection); type: cell-based; details: 24 hours, geometric median of fluorescence intensity, means ± s.d., n = 3, model group 222.64 ± 8.34
Experimental: Experiment method: the HepG2 cells in the logarithmic growth phase are taken having a growth density of 80%, and inoculated into 6-well plate at 1×10^5 per well. After culturing cells for 24 hours, the supernatant is discarded, and the cells are washed with PBS three times. […] Except for the blank control group, all of the other groups are added FFA having a final concentration of 1 mmol/L, and the remaining volume is completed to 2 mL with the DMEM medium containing 10% fetal bovine serum, 24 hours after administration, washed with PBS in 37° C. three times, digested by the pancreatin, centrifugated, the supernatant is discarded, the cells are resuspended with PBS, and the final concentration is adjusted to 1 μg/mL by adding nile red dye.

[3] = system: rat primary hepatocyte; assay: Influence on the lipid droplet content of the rat primary hepatocyte (FFA hyperlipidemia model, nile red, flow detection); type: cell-based, SD rat; details: administration dose 20 μM total molar concentration; 1 mmol/L FFA; 24 hours; means ± s.d., n = 3; versus model group
Experimental: The hepatocyte is taken out from the SD rat liver by using Seglen two steps in situ circulatory perfusion method, filtered through 100-mesh sieve, centrifugated for 3 min at 500 rpm and 4° C., and the supernatant is discarded, and the hepatocyte is washed three times in the same way. The number of living cells and the cell survival rate is obtained by counting the cell, and the cells are added in the plate at 1.0*10^6 cell/mL medium. The cells are cultured for 24 hours, then the supernatant is discarded, and the cells are washed with PBS three times. […] Other groups are adjusted to a final volume of 2 mL with Williams'E medium without serum, and 24 hours after administration, washed with PBS in 37° C. three times, digested by the pancreatin, centrifugated, the supernatant is discarded, the cells are resuspended with PBS, and the final concentration is adjusted to 1 μg/mL by adding nile red dye. […] Using D-Optimal experimental design method in the mixture experimental design, calculation is carried out by using response surface analysis method and using Design expert8.05b software. Choosing D-optimal in the Mixture option, analysis is carried out by entering compatible ratio of the compatible groups and the test results in Table 2.

[4] = administration dose 20 μM, 1 mM FFA

CC(C)(Oc1ccc(CCNC(=O)c2ccc(Cl)cc2)cc1)C(=O)O [bezafibrate]
Weight [1]: 433.15 ± 24.53 g | ALT (U/L) ([1]; listed under liver): 107.9 ± 14.12 U/L | AST (U/L) ([1]; listed under liver): 217.8 ± 33.93 U/L | liver TC (mg/g liver) ([1]; liver): 33 ± 12.23 mg/g liver | liver TG (mg/g liver) ([1]; liver): 186 ± 37.92 mg/g liver | serum HDL-C ([1]; serum): 1.58 ± 0.29 mmol/L | serum LDL-C ([1]; serum): 0.54 ± 0.30 mmol/L | serum TC ([1]; serum): 1.58 ± 0.17 mmol/L | serum TG ([1]; serum): 0.88 ± 0.19 mmol/L | lipid droplet content ([2]; administration dose 100 μM): 178.84 ± 2.84

O=c1c(O[C@@H]2O[C@H](CO)[C@@H](O)[C@H](O)[C@H]2O)c(-c2ccc(O)c(O)c2)oc2cc(O)cc(O)c12 [isoquercitrin]
decrease of the lipid droplet content (%) [3]: 7.52 ± 1.63% | lipid droplet content [2, 4]: 200.61 ± 8.43

O=C(O)[C@H]1O[C@@H](Oc2c(-c3ccc(O)c(O)c3)oc3cc(O)cc(O)c3c2=O)[C@H](O)[C@@H](O)[C@@H]1O [quercetin-3-O-β-D-glucuronide]
decrease of the lipid droplet content (%) [3]: 8.07 ± 0.92% | lipid droplet content [2, 4]: 153.38 ± 2.88

O=c1c(O)c(-c2ccc(O)c(O)c2)oc2cc(O)cc(O)c12 [quercetin]
decrease of the lipid droplet content (%) [3]: 7.01 ± 1.03% | lipid droplet content [2, 4]: 198.25 ± 6.04

Source: US10391113B2, “Compatible composition containing chinese medicine cichorium glandulosum boiss et hout as lipid-lowering active ingredient” (Nanjing Ruiying Runze Biopharmaceutical Technology Co., Inc., priority 2014, dated 2019)
